Assay results published in patent US20100278849A1, “PROSTATIC ACID PHOSPHATASE ANTIGENS” (priority 2004, published 2010).
Entries after “also recorded” stand apart in the source; their conditions may differ.

Experiments:
HLA-A2 = HLA-A2 (Homo sapiens, UniProt P04439, D140Y/D185E/D98H/E176V/E277Q/G131W/G231S/I119V/I121R/I166T/I218V/L300P/L318F/N151K/N90K/P208A/P217A/Q86G/Q94H/R138H/R169H/T345S); settings: earlier reports; cited from earlier work
HLA-A2*0201 = HLA-A2*0201 (Homo sapiens, UniProt P04439, D140Y/D185E/D98H/E176V/E277Q/G131W/G231S/I119V/I121R/I166T/I218V/L300P/L318F/N151K/N90K/P208A/P217A/Q86G/Q94H/R138H/R169H/T345S); assay type: cell-based

## ALDVYNGLL [PAP.299, reference compound]
HLA-A2
  HLA-A2 binding previously described: strong HLA-A2 binding
HLA-A2*0201
  binding to HLA-A2 (T2 cells): no significant binding; also recorded: unable to confirm the strong HLA-A2 binding
